Assays:
[1] = system: peanut; test: Upland soil application test (Test 2), crop injury; format: in vivo; conditions: 30 g ai/a, soil spray before emergence, 30 days later
Experimental: (§1) Resin-made 1/2500-are pots were filled with the soil of an upland field. After they were fertilized, soybean, peanut and cotton were seeded and 2-3 cm soil covering was applied. Seeds of redroot pigweed, common lambsquarters, barnyardgrass, green foxtail, large crabgrass, foxtail meadow and johnsongrass had been uniformly mixed with the soil. They were allowed to germinate in a green house. One day later (before emergence of weeds), a wettable powder prepared from a predetermined amount of each test compound in a similar manner to the method described in Formulation Example 1 was diluted with water and then sprayed evenly at an application rate equal to 10 l per are onto the surface of the soil by means of a pressure-operated ULV (ultra low volume) sprayer. Influence to the crops and weeds were observed 30 days later. The results are shown in Table 3, in which the degree of damages of each test plant and the degree of injury to each crop were determined by comparing the air-dried weights of the test plant and crop with those of the corresponding plant and crop in untreated pots and are shown in accordance with the following standard: […]

[2] = system: soybean; test: Upland soil application test (Test 2), crop injury; format: in vivo; conditions: 30 g ai/a, soil spray before emergence, 30 days later
Experimental: as §1

[3] = system: cotton; test: Upland soil application test (Test 2), crop injury; format: in vivo; conditions: 30 g ai/a, soil spray before emergence, 30 days later
Experimental: as §1

[4] = system: soybean; test: Upland foliar application test (Test 3), crop injury; format: in vivo; conditions: 30 g ai/a, foliar spray at 2-3 leaves, 30th day
In short: (§2)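 Steps: sow in upland soil, greenhouse; grow to 2-3 leaf stage; spray leaves with water-diluted emulsion at 5 l per are using a ULV sprayer; assess effects on day 30.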

[5] = system: cotton; test: as above; format: in vivo; conditions: 30 g ai/a, foliar spray at 2-3 leaves, 30th day
In short: as §2

[6] = system: redroot pigweed; test: Upland soil application test (Test 2); format: in vivo; conditions: 30 g ai/a, soil spray before emergence, 30 days later
Experimental: as §1

[7] = system: foxtail meadow; test: Upland soil application test (Test 2); format: in vivo; conditions: 30 g ai/a, soil spray before emergence, 30 days later
Experimental: as §1

[8] = system: green foxtail; test: Upland soil application test (Test 2); format: in vivo; conditions: 30 g ai/a, soil spray before emergence, 30 days later
Experimental: as §1

[9] = system: johnsongrass; test: Upland soil application test (Test 2); format: in vivo; conditions: 30 g ai/a, soil spray before emergence, 30 days later
Experimental: as §1

[10] = system: common lambsquarters; test: Upland soil application test (Test 2); format: in vivo; conditions: 30 g ai/a, soil spray before emergence, 30 days later
Experimental: as §1

[11] = system: large crabgrass; test: Upland soil application test (Test 2); format: in vivo; conditions: 30 g ai/a, soil spray before emergence, 30 days later
Experimental: as §1

[12] = system: barnyardgrass; test: Upland soil application test (Test 2); format: in vivo; conditions: 30 g ai/a, soil spray before emergence, 30 days later
Experimental: as §1

[13] = system: ALS (acetolactate syntase); test: ALS enzyme assay (Test 1); format: biochemical, pea; conditions: 1,000 ppm (0.5 mg/0.5 ml)
Experimental: To determine the selectivity in enzyme level between crops and weeds, and ALS enzyme assay was conducted using pea as a representative of broadleaf crops and barnyardgrass as a representative of narrowleaf weeds.
After seeds of pea and barnyardgrass were allowed to germinate at 25° C. for 8-14 days in a dark place, partially-purified suspensions (Suspensions A) of acetolactate syntase were separately obtained from seedlings in accordance with the method described in the literature, Plant Physiology, 75, 827-831.
In a test tube, 0.5 mg of one of test compounds was weighed, followed by the addition of 0.15 ml of a 20 mM K2 HPO4 solution and 0.25 ml of a reaction substrate medium which consisted of 40 mM of K2 HPO4, 40 mM of sodium pyruvate, 1 mM of TPP, 1 mM of MgCl2 and 20 μM of FAD so that 0.4 ml of a reaction solution (Solution B) was prepared. Added to 0.4 ml of Solution B was 0.1 ml of suspension A. After the resultant mixture was shaken for 1 hour in a thermostat water bath controlled at 30° C., 50 μl of 6N sulfuric acid were added to terminate the reaction.
Next, the reaction-terminated liquid mixture was transferred into a thermostat water bath controlled at 60° C. and was heated for 15 minutes. Thereafter, 0.5 ml of a 0.5% creatine solution and 0.5 ml of a 5% alkaline α-naphthol solution were added, and the resultant mixture was maintained at 60° C. for 15 minutes. As a result, the test solution developed a pink-red color. After the above operation, the absorbance of the test solution at 525 nm was measured by a spectrophotometer (Absorbance 1 of Test Compound).
On the other hand, the absorbance (Absorbance 2 of Blank) of a solution obtained by subjecting a portion of Solution B, said portion being free of the test compound, to the above operation and the absorbance (Absorbance 3 of sulfuric acid terminated) of another solution obtained by subjecting another portion of Solution B, said portion containing 50 μl of 6N sulfuric acid as a test compound, were measured at the same time. Based on the values of the respective measurements, the enzyme assay at 1,000 ppm (0.5 mg/0.5 ml) of each compound was determined. [formula]

Structure (SMILES) | Injury Peanut [1] | Injury Soybean [2] | Injury Cotton [3] | Injury Soybean [4] | Injury Cotton [5] | Herbicidal effects Redroot pigweed [6] | Herbicidal effects Foxtail meadow [7] | Herbicidal effects Green foxtail [8] | Herbicidal effects Johnsongrass [9] | Herbicidal effects Common lambsquarters [10] | Herbicidal effects Large crabgrass [11] | Herbicidal effects Barnyardgrass [12] | Inhibitory activity (%) Pea [13] [%]
C=C(C)CON=Cc1ccccc1Oc1nc(OC)cc(OC)n1 [compound 5] | 0 (91-100 (No damages)) | 0 (91-100 (No damages)) | 0 (91-100 (No damages)) | 0 (91-100 (No damages)) | 0 (91-100 (No damages)) | 4 (6-10 (Severe damages)) | 5 (0-5 (Death)) | 5 (0-5 (Death)) | 5 (0-5 (Death)) | 4 (6-10 (Severe damages)) | 5 (0-5 (Death)) | 5 (0-5 (Death)) | 0
CC=CCON=Cc1ccccc1Oc1nc(OC)cc(OC)n1 [compound 8] | 0 (91-100 (No damages)) | 0 (91-100 (No damages)) | 0 (91-100 (No damages)) | 0 (91-100 (No damages)) | 0 (91-100 (No damages)) | 5 (0-5 (Death)) | 5 (0-5 (Death)) | 5 (0-5 (Death)) | 5 (0-5 (Death)) | 4 (6-10 (Severe damages)) | 4 (6-10 (Severe damages)) | 4 (6-10 (Severe damages)) | 0
COc1cc(OC)nc(Oc2ccccc2C=NOCC=C(C)Cl)n1 [compound 12] | 0 (91-100 (No damages)) | 0 (91-100 (No damages)) | 0 (91-100 (No damages)) | 0 (91-100 (No damages)) | 0 (91-100 (No damages)) | 3 (11-40 (Medium damages)) | 4 (6-10 (Severe damages)) | 4 (6-10 (Severe damages)) | 4 (6-10 (Severe damages)) | 3 (11-40 (Medium damages)) | 4 (6-10 (Severe damages)) | 4 (6-10 (Severe damages)) | 0
COc1cc(OC)nc(Oc2ccccc2C=NOCc2ccccc2Cl)n1 [compound 16] | 0 (91-100 (No damages)) | 0 (91-100 (No damages)) | 0 (91-100 (No damages)) | 0 (91-100 (No damages)) | 0 (91-100 (No damages)) | 3 (11-40 (Medium damages)) | 3 (11-40 (Medium damages)) | 3 (11-40 (Medium damages)) | 3 (11-40 (Medium damages)) | 3 (11-40 (Medium damages)) | 4 (6-10 (Severe damages)) | 3 (11-40 (Medium damages)) | 0

From patent US5053070A, “Pyrimidine derivatives, preparation processes thereof, herbicide containing the same, and herbicidal compositions containing the same along with other active ingredient” (Mitsui Toatsu Chemicals, Incorporated, priority 1988, dated 1991)
